Consider 7 compounds from US5840684A, “Glycopeptide antibiotic derivatives” (Eli Lilly and Company, priority 1995, dated 1998).

For assay [1], the system named is Staphylococcus aureus S13E. The class given is cell-based. How it is done:
(§1) The MIC's were determined using a standard broth micro-dilution assay.

The subject of assay [2] is Staphylococcus aureus SA1199B. Format: cell-based. As to the method: as §1
The subject of assay [3] is Entercoccus faecium 180-1. Kind of assay: broth micro-dilution MIC. The class given is cell-based. How it is done:
as §1
For orientation: Dilution methods test growth across graded concentrations, often in twofold steps.

The subject of a further assay is Entercoccus faecium 276. Kind of assay: broth micro-dilution MIC. The class given is cell-based. How it is done:
as §1

Assay [4] relates to Staphylococcus aureus SA1199A. As to the kind of experiment: broth micro-dilution MIC. The class given is cell-based. As to the method:
as §1

In assay [5] the test system is Staphylococcus aureus SA1199. Kind of assay: broth micro-dilution MIC. The class given is cell-based. As to the method:
as §1

In assay [6] the test system is Streptococcus pyogenes C203. Kind of assay: broth micro-dilution MIC. Format: cell-based. As to the method: as §1
The subject of the next assay is Entercoccus faecium 180. As to the kind of experiment: broth micro-dilution MIC. Format: cell-based. The settings on record: Entercoccus faecium 180. How it is done:
(§2) The formula I compounds have in vitro and in vivo activity against Gram-positive pathogenic bacteria. The MIC's were determined using a standard broth micro-dilution assay.

Assay [7] has as its system Enterococcus gallinarum 245. As to the kind of experiment: broth micro-dilution MIC. Format: cell-based. The following applies: Enterococcus gallinarum 245. As to the method: as §2
The subject of assay [8] is Streptococcus pneumoniae P1. Kind of assay: broth micro-dilution MIC. The class given is cell-based. How it is done:
as §2

In assay [9] the test system is vancomycin-susceptible enterococci. As to the kind of experiment: broth micro-dilution, mean geometric MIC. Format: cell-based, Enterococcus faecium and Enterococcus faecalis. The following applies: enterococci, 24-hour incubation.
The subject of assay [10] is Staphylococcus aureus 446. Kind of assay: broth micro-dilution MIC. Format: cell-based. How it is done: as §1
The subject of assay [11] is Staphylococcus aureus 447. As to the kind of experiment: broth micro-dilution MIC. Format: cell-based. As to the method:
as §1

In assay [12] the test system is Staphylococcus aureus X400. Kind of assay: broth micro-dilution MIC. The class given is cell-based. How it is done: as §1
The subject of assay [13] is Staphylococcus aureus X778. Kind of assay: broth micro-dilution MIC. The class given is cell-based. How it is done:
as §1

Another assay concerns Entercoccus faecium 2041. As to the kind of experiment: broth micro-dilution MIC. The class given is cell-based. The settings on record: Entercoccus faecium 2041. How it is done:
as §2

The test system of assay [14] is Staphylococcus epidermidis 270. Kind of assay: broth micro-dilution MIC. The class given is cell-based. As to the method: as §2
Assay [15] has as its system Staphylococcus haemolyticus 105. As to the kind of experiment: broth micro-dilution MIC. Format: cell-based. How it is done:
as §2

Assay [16] concerns vancomycin-resistant enterococci. As to the kind of experiment: broth micro-dilution, mean geometric MIC. The class given is cell-based, Enterococcus faecium and Enterococcus faecalis. The settings on record: enterococci, 24-hour incubation.
Assay [17] has as its system Staphylococcus haemolyticus 415. As to the kind of experiment: broth micro-dilution MIC. Format: cell-based. As to the method: as §2

Converted amounts (≈) assume the structure as drawn.

Regarding `CCCCCCCCCCCCOc1ccc(CNC2(C)CC(OC3C(Oc4c5cc6cc4Oc4ccc(cc4Cl)C(OC4CC(C)(N)C(O)C(C)O4)C4NC(=O)C(NC(=O)C6NC(=O)C(CC(N)=O)NC(=O)C(NC(=O)C(CC(C)C)NC)C(O)c6ccc(c(Cl)c6)O5)c5ccc(O)c(c5)-c5c(O)cc(O)cc5C(C(=O)O)NC4=O)OC(CO)C(O)C3O)OC(C)C2O)cc1` (centres unmarked) [Compound 10], the MIC in [1] turned out to be 8 µg/mL (≈ 4.29 µM); in assay [2] it was 8 µg/mL (≈ 4.29 µM); in assay [3] it was 4 µg/mL (≈ 2.14 µM); in the assay on Entercoccus faecium 276, 18 µg/mL (≈ 9.64 µM); in assay [4] it was 4 µg/mL (≈ 2.14 µM); in [5], 8 µg/mL (≈ 4.29 µM). For the same compound, the MIC in [6] was not above 0.06 µg/mL; against Entercoccus faecium 180, 8 µg/mL (≈ 4.29 µM); in [7], 8 µg/mL (≈ 4.29 µM); in assay [8] it was 0.125 µg/mL (≈ 0.067 µM). In assay [9], the “mean geometric MIC, Vancomycin Sensitive Strains” value was 3.5 µg/mL.
For the compound `CNC(CC(C)C)C(=O)NC1C(=O)NC(CC(N)=O)C(=O)NC2C(=O)NC3C(=O)NC(C(=O)NC(C(=O)O)c4cc(O)cc(O)c4-c4cc3ccc4O)C(OC3CC(C)(N)C(O)C(C)O3)c3ccc(c(Cl)c3)Oc3cc2cc(c3OC2OC(CO)C(O)C(O)C2OC2CC(C)(NCCc3cccc(Oc4ccccc4)c3)C(O)C(C)O2)Oc2ccc(cc2Cl)C1O` (centres unmarked) [Compound 62], the MIC was 0.5 µg/mL (≈ 0.28 µM) in [1]; 1 µg/mL (≈ 0.559 µM) in [2]; not above 0.06 µg/mL in assay [3]; 0.5 µg/mL (≈ 0.28 µM) with Entercoccus faecium 276; 2 µg/mL (≈ 1.12 µM) in [10]; 0.5 µg/mL (≈ 0.28 µM) in [11]. The MIC in [4] is not above 0.06 µg/mL; in [12], not above 0.06 µg/mL; in assay [13] it was 0.5 µg/mL (≈ 0.28 µM); in assay [6], not above 0.06 µg/mL; against Entercoccus faecium 180 it was 4 µg/mL (≈ 2.24 µM); with Entercoccus faecium 2041, not above 0.06 µg/mL. Further, the MIC in assay [7] is 4 µg/mL (≈ 2.24 µM); in [14], 1 µg/mL (≈ 0.559 µM); in assay [15], 2 µg/mL (≈ 1.12 µM); in [8] it was not above 0.06 µg/mL. Besides, the “mean geometric MIC, Vancomycin Resistant Strains” value in [16] is 9.5 µg/mL. Moreover, the “mean geometric MIC, Vancomycin Sensitive Strains” value in assay [9] was 0.22 µg/mL.
For `CNC(CC(C)C)C(=O)NC1C(=O)NC(CC(N)=O)C(=O)NC2C(=O)NC3C(=O)NC(C(=O)NC(C(=O)O)c4cc(O)cc(O)c4-c4cc3ccc4O)C(OC3CC(C)(N)C(O)C(C)O3)c3ccc(c(Cl)c3)Oc3cc2cc(c3OC2OC(CO)C(O)C(O)C2OC2CC(C)(NCc3ccc4cc(OC)ccc4c3)C(O)C(C)O2)Oc2ccc(cc2Cl)C1O` (centres unmarked) [Compound 65], the MIC is 0.5 µg/mL (≈ 0.284 µM) in [1]; 2 µg/mL (≈ 1.13 µM) in assay [2]; not above 0.06 µg/mL in assay [3]; 0.5 µg/mL (≈ 0.284 µM) with Entercoccus faecium 276; 2 µg/mL (≈ 1.13 µM) in [10]; 1 µg/mL (≈ 0.567 µM) in [11]. The MIC was not above 0.06 µg/mL in assay [4]; 0.5 µg/mL (≈ 0.284 µM) in assay [5]; 0.5 µg/mL (≈ 0.284 µM) in assay [13]; 0.5 µg/mL (≈ 0.284 µM) with Entercoccus faecium 180; not above 0.06 µg/mL with Entercoccus faecium 2041; 4 µg/mL (≈ 2.27 µM) in [7]. For the same compound, the MIC was 1 µg/mL (≈ 0.567 µM) in [14], 4 µg/mL (≈ 2.27 µM) in [17] and not above 0.06 µg/mL in assay [8]. Besides, the “mean geometric MIC, Vancomycin Resistant Strains” value in assay [16] was determined as 2.4 µg/mL. Moreover, the “mean geometric MIC, Vancomycin Sensitive Strains” value in assay [9] amounted to 0.20 µg/mL.
In the case of `CNC(CC(C)C)C(=O)NC1C(=O)NC(CC(N)=O)C(=O)NC2C(=O)NC3C(=O)NC(C(=O)NC(C(=O)O)c4cc(O)cc(O)c4-c4cc3ccc4O)C(OC3CC(C)(N)C(O)C(C)O3)c3ccc(c(Cl)c3)Oc3cc2cc(c3OC2OC(CO)C(O)C(O)C2OC2CC(C)(NCCc3ccc(OCc4ccccc4)cc3)C(O)C(C)O2)Oc2ccc(cc2Cl)C1O` (centres unmarked) [Compound 68], the MIC was not above 0.06 µg/mL in assay [1]; 0.5 µg/mL (≈ 0.277 µM) in [2]; not above 0.06 µg/mL in assay [3]; not above 0.06 µg/mL in the assay with Entercoccus faecium 276; not above 0.06 µg/mL in [4]; not above 0.06 µg/mL in assay [5]. The MIC is not above 0.06 µg/mL in assay [12]; not above 0.06 µg/mL in assay [13]; 2 µg/mL (≈ 1.11 µM) in the assay on Entercoccus faecium 180; not above 0.06 µg/mL with Entercoccus faecium 2041; 4 µg/mL (≈ 2.22 µM) in [7]; 2 µg/mL (≈ 1.11 µM) in assay [14]. Also, the MIC in [15] came to 2 µg/mL (≈ 1.11 µM); in [17], 4 µg/mL (≈ 2.22 µM). Moreover, the “mean geometric MIC, Vancomycin Resistant Strains” value in assay [16] amounted to 6.7 µg/mL.
For the compound `CNC(CC(C)C)C(=O)NC1C(=O)NC(CC(N)=O)C(=O)NC2C(=O)NC3C(=O)NC(C(=O)NC(C(=O)O)c4cc(O)cc(O)c4-c4cc3ccc4O)C(OC3CC(C)(N)C(O)C(C)O3)c3ccc(c(Cl)c3)Oc3cc2cc(c3OC2OC(CO)C(O)C(O)C2OC2CC(C)(NCc3cc(-c4ccccc4)ccc3O)C(O)C(C)O2)Oc2ccc(cc2Cl)C1O` (centres unmarked) [Compound 85], the MIC in assay [1] is 0.5 µg/mL (≈ 0.282 µM); in [2], 1 µg/mL (≈ 0.563 µM); in [3], not above 0.06 µg/mL; in assay [4], not above 0.06 µg/mL; in assay [5], 0.5 µg/mL (≈ 0.282 µM); in [6], not above 0.06 µg/mL. Besides, the MIC was not above 0.06 µg/mL with Entercoccus faecium 180; not above 0.06 µg/mL in the assay on Entercoccus faecium 2041; 2 µg/mL (≈ 1.13 µM) in assay [7]; 0.5 µg/mL (≈ 0.282 µM) in [14]; 1 µg/mL (≈ 0.563 µM) in [15]; 2 µg/mL (≈ 1.13 µM) in assay [17]. The compound further displayed an MIC in assay [8] not above 0.06 µg/mL. In assay [16], the “mean geometric MIC, Vancomycin Resistant Strains” value came to 3.4 µg/mL. Moreover, the “mean geometric MIC, Vancomycin Sensitive Strains” value in assay [9] came to 0.11 µg/mL.
Consider `CNC(CC(C)C)C(=O)NC1C(=O)NC(CC(N)=O)C(=O)NC2C(=O)NC3C(=O)NC(C(=O)NC(C(=O)O)c4cc(O)cc(O)c4-c4cc3ccc4O)C(OC3CC(C)(N)C(O)C(C)O3)c3ccc(c(Cl)c3)Oc3cc2cc(c3OC2OC(CO)C(O)C(O)C2OC2CC(C)(NCc3ccc(N4CCCCC4C)cc3)C(O)C(C)O2)Oc2ccc(cc2Cl)C1O` (centres unmarked) [Compound 135], for which the MIC in [1] was 1 µg/mL (≈ 0.562 µM); in assay [3] it was not above 0.06 µg/mL; in the assay on Entercoccus faecium 276, 0.5 µg/mL (≈ 0.281 µM); in assay [10] it was 1 µg/mL (≈ 0.562 µM); in assay [11], 1 µg/mL (≈ 0.562 µM); in [4], not above 0.06 µg/mL. The MIC is 1 µg/mL (≈ 0.562 µM) in assay [5]; not above 0.06 µg/mL in assay [12]; 1 µg/mL (≈ 0.562 µM) in assay [13]; not above 0.06 µg/mL in assay [6]; 1 µg/mL (≈ 0.562 µM) in the assay on Entercoccus faecium 180; 2 µg/mL (≈ 1.12 µM) in [7]. The MIC in [14] was 0.5 µg/mL (≈ 0.281 µM); in assay [15] it was 0.5 µg/mL (≈ 0.281 µM); in [17] it was 2 µg/mL (≈ 1.12 µM); in assay [8], not above 0.06 µg/mL. The “mean geometric MIC, Vancomycin Resistant Strains” value in assay [16] was found to be 4.8 µg/mL. In [9], the “mean geometric MIC, Vancomycin Sensitive Strains” value amounted to 0.22 µg/mL.
For `CNC(CC(C)C)C(=O)NC1C(=O)NC(CC(N)=O)C(=O)NC2C(=O)NC3C(=O)NC(C(=O)NC(C(=O)O)c4cc(O)cc(O)c4-c4cc3ccc4O)C(OC3CC(C)(N)C(O)C(C)O3)c3ccc(c(Cl)c3)Oc3cc2cc(c3OC2OC(CO)C(O)C(O)C2OC2CC(C)(NCc3ccc(S(=O)(=O)c4ccc(Cl)cc4)cc3)C(O)C(C)O2)Oc2ccc(cc2Cl)C1O` (centres unmarked) [Compound 148], the MIC was 1 µg/mL (≈ 0.538 µM) in [1]; 0.5 µg/mL (≈ 0.269 µM) in assay [2]; not above 0.06 µg/mL in assay [3]; not above 0.06 µg/mL against Entercoccus faecium 276; 1 µg/mL (≈ 0.538 µM) in [10]; 1 µg/mL (≈ 0.538 µM) in assay [11]. For the same compound, the MIC was not above 0.06 µg/mL in assay [4]; 2 µg/mL (≈ 1.08 µM) in assay [5]; not above 0.06 µg/mL in assay [12]; 2 µg/mL (≈ 1.08 µM) in [13]; not above 0.06 µg/mL in assay [6]; not above 0.06 µg/mL with Entercoccus faecium 2041. Besides, the MIC was 2 µg/mL (≈ 1.08 µM) in assay [7]; 0.5 µg/mL (≈ 0.269 µM) in assay [14]; 1 µg/mL (≈ 0.538 µM) in [15]; 2 µg/mL (≈ 1.08 µM) in assay [17]; not above 0.06 µg/mL in assay [8]. Also, the “mean geometric MIC, Vancomycin Resistant Strains” value in assay [16] is 0.15 µg/mL. Besides, in assay [9], the “mean geometric MIC, Vancomycin Sensitive Strains” value is 0.052 µg/mL.

A word on the MIC: it is the least concentration at which growth counts as inhibited. A high value points to a need for much substance.
